Source: US20190106454A1, “COMPOUNDS LINKED WITH A SACCHARIDE METAL COMPLEX AND USES THEREOF” (FRED HUTCHINSON CANCER RESEARCH CENTER, priority 2016, published 2019)
“Also recorded” adds a separate entry of the source.

Assays:
heme oxygenase 1 (HO-1) [1] = test: Induction of HO-1 mRNA (RT-PCR) and protein (ELISA) in renal cortex and plasma; assay type: in vivo, mice; settings: for renal cortical HO-1 protein levels / increase in renal cortical HO-1 levels over baseline: ELISA; for renal cortical HO-1 mRNA induction / increase in renal cortical HO-1 levels over baseline: 1 umole; for renal cortical HO-1 mRNA induction: RT-PCR (FIG. 11)
Excerpt: (§1) Methods. Male CD-1 mice (25-40 grams) Charles River, Wilmington, Mass.) were used for all experiments. They were housed under standard vivarium conditions with free food and water access. All experiments were approved by the Fred Hutchinson Cancer Research Center IACUC in accordance with NIH guidelines.
Effects of FeS, SnPP, and B12 on renal cortical induction of heme oxygenase 1 (HO-1). The following experiments assessed the effects of FeS, SnPP, and B12 on the possible induction of the cytoprotective protein HO-1. To this end, mice were injected with each of these agents, as noted above. Either 4 or 18 hrs later, they were anesthetized and the kidneys were removed through a midline abdominal incision. The renal cortices were dissected on ice and then extracted for protein and mRNA. The samples were then assayed for HO-1 protein by ELISA, and HO-1 mRNA by RT-PCR, factored by GAPDH levels. Five normal mice provided control values. […]

[2] = system: maleate-induced AKI in mice; test: Maleate model of AKI; assay type: in vivo; settings: IV pre-treatment 18 hrs before IP Na maleate 800 mg/Kg, read 18 hrs post maleate
Excerpt: as §1
Effects of Fe sucrose (FeS)/tin protoporphyrin (SnPP) on AKI severity. Maleate model of AKI. When injected into rodents, maleate undergoes relatively selective proximal tubule cell uptake via organic anion transporters. Once intracellular accumulation occurs, maleate is a preferred substrate for succinyl-CoA:3-oxoacid CoA transferase. […] Ample levels of CoA are essential for fatty acid “activation”, allowing for their subsequent metabolism through the Krebs cycle, yielding ATP. In the absence of this process, proximal tubule ATP depletion and cell injury result. Additionally, maleate conjugates the sulfhydryl group of glutathione (GSH), culminating in GSH depletion and potential oxidant tubular stress.
The following experiment tested whether FeS, SnPP or combined FeS+SnPP can mitigate this form of acute kidney injury (AKI). Twenty seven mice were subjected to 200 μL IV tail injections of one of the following: 1) vehicle (phosphate buffered saline, PBS; n, 10); 2) 1 mg FeS (American Regent (Shirley, N.Y.; n, 3); 3) 1 μmole SnPP (Frontier Scientific, Logan, Utah; n 7), or FeS+SnPP, n, 7). Eighteen hrs later, all mice received an IP injection of Na maleate (800 mg/Kg; in 500 ul of PBS). Eighteen hrs later, the mice were deeply anesthetized with pentobarbital (50 mg/Kg IP), the abdominal cavities were opened, and blood samples were obtained from the abdominal vena cava. The severity of kidney injury was assessed by determining plasma blood urea nitrogen (BUN) and plasma creatinine (PCr) concentrations.
Maleate model of AKI. Mice received tail vein injections of either combination of FeS+B12 or vehicle (n, 6 per group). Eighteen hrs later they received IP maleate injections, as noted above. The severity of AKI was determined 18 hrs post maleate injection by terminal BUN and PCr assessments.

Ferritin heavy (Fhc) = test: Ferritin heavy chain Western blotting of renal cortex; assay type: in vivo, mice; settings: 18 hr post treatment, Western blot band densitometry
Protocol: Ferritin heavy (Fhc) expression in renal cortex. HO-1 activity leads to increased Fhc expression. […] Because Fe sucrose also induces Fhc expression, the potential impact of SnPP treatment on this response was assessed (18 hrs post 1 mg FeS±concomitant SnPP treatment (n, 4 each)).

haptoglobin = test: Induction of haptoglobin mRNA and protein in renal cortex and plasma; assay type: in vivo, mice; settings: 1 umole; for renal cortical haptoglobin mRNA induction: 4 hrs post injection, RT-PCR (FIG. 11)
Protocol: MesP up-regulates Nrf2 sensitive genes. Mice are injected MesP (0.1-2.5 umoles/mouse) or with a MesP vehicle. At either 4 or 18 hrs, the mice are deeply anesthetized with pentobarbital and the kidneys are removed through a midline abdominal incision. The renal cortices are dissected on ice, extracted for protein and mRNA, and assayed for HO-1 and haptoglobin protein and mRNA levels by ELISA and competitive RT-PCR, respectively. In this regard, both HO-1 and haptoglobin are Nrf2 sensitive genes. An increase in HO-1 and haptoglobin mRNA and protein levels at 4 hrs and 18 hrs post MesP administration, respectively, is measured to confirm MesP, like SnPP, induces Nrf2 signaling.

renal injury in rats = settings: cited from earlier work
[3] = system: kidney dysfunction in glycerol model rhabdomyolysis; settings: blocking HO with competitive inhibitor; cited from earlier work
[4] = system: renal ischemia-reperfusion (IRI) induced AKI in mice; test: Renal ischemic-reperfusion injury (IRI) model of AKI; assay type: in vivo; settings: 1 umole 18 hrs before 22 min bilateral ischemic injury
Protocol: as §1
Renal ischemic—reperfusion injury (IRI) model of AKI. The following experiment assessed whether combination FeS+SnPP can mitigate the renal artery occlusion model of AKI. Mice received 200 μl tail vein injections of either PBS (n, 9) or FeS+SnPP (n, 8), as noted above. Eighteen hrs later, the mice were deeply anesthetized with pentobarbital (40-50 mg/Kg IP), the abdominal cavities were opened, the renal pedicles were identified and both were occluded with microvascular clamps. Body temperature was maintained at 36-37° C. throughout. Following 22 minutes of bilateral renal ischemia, the clamps were removed, uniform reperfusion was visually confirmed by the reappearance of a normal renal color (loss of tissue cyanosis), and then the abdominal cavities were closed in two layers with silk suture. […] The severity of renal injury was determined by BUN and PCr concentrations.
Protection against acute kidney injury. […] AKI severity are determined by degrees of BUN and plasma creatinine increases.

heme oxygenase 1 (HO-1) [5] = test: Induction of HO-1 mRNA (RT-PCR) and protein (ELISA) in renal cortex and plasma; assay type: in vivo, mice; settings: 1 umole, 18 hrs post injection

cyanocobalamin [B12]
renal cortical HO-1 protein levels (heme oxygenase 1 (HO-1) [1]; 4 hrs post IV injection): marked HO-1 protein increases | renal cortical HO-1 protein levels (heme oxygenase 1 (HO-1) [1]; 18 hrs post IV injection): persists

C=Cc1c2[n-]c(c1C)/C=c1\[n-]/c(c(C)c1C=C)=C\c1[n-]c(c(CCC(=O)O)c1C)/C=c1\[n-]c(c(C)c1CCC(=O)O)=C2.[Sn+4] [SnPP, tin protoporphyrin]
severity of renal injury (BUN and PCr) [2]: Neither SnPP alone nor FeS alone significantly altered the severity of renal injury | severity of renal injury (BUN and PCr) ([2]; listed as Sn-protoporphyrin): Neither Sn-protoporphyrin alone nor iron-sucrose alone significantly altered the severity of renal injury | renal cortical HO-1 mRNA induction (heme oxygenase 1 (HO-1) [1]; 4 hrs post injection): raised | increase in Fhc expression over control values (Ferritin heavy (Fhc)): 24% | renal cortical haptoglobin mRNA induction (haptoglobin): raised | fractional excretion of sodium (renal injury in rats; day 2 after cisplatin, rats): increased | renal blood flow rates (renal injury in rats; day 2 after cisplatin, rats): reduced | renal vascular resistance (renal injury in rats; day 2 after cisplatin, rats): increased | inulin clearances (renal injury in rats; day 5): lower | serum creatinine values (renal injury in rats; days 3 through 5): higher | renal injury (renal injury in rats; pretreatment): exacerbated renal injury | kidney dysfunction [3]: exacerbated kidney dysfunction

Fe sucrose [FeS]
severity of renal injury (BUN and PCr) [2]: Neither SnPP alone nor FeS alone significantly altered the severity of renal injury | severity of renal injury (BUN and PCr) ([2]; listed as iron-sucrose): Neither Sn-protoporphyrin alone nor iron-sucrose alone significantly altered the severity of renal injury | renal cortical HO-1 protein levels (heme oxygenase 1 (HO-1) [1]; 4 hrs post IV injection): marked HO-1 protein increases | renal cortical HO-1 protein levels (heme oxygenase 1 (HO-1) [1]; 18 hrs post IV injection): remained elevated | renal cortical HO-1 protein levels (heme oxygenase 1 (HO-1) [1]; 18 hrs post IV injection, listed as iron-sucrose): persists; also recorded: remained elevated | increase in Fhc expression over control values (Ferritin heavy (Fhc)): 1-4%

tin mesoporphyrin [SnMeP]
ischemic damage (BUN and plasma creatinine concentrations) [4]: lessening of ischemic damage | increase in renal cortical HO-1 levels over baseline (heme oxygenase 1 (HO-1) [1]; 4 hrs post injection): 3 fold | renal cortical HO-1 mRNA induction (heme oxygenase 1 (HO-1) [1]; 4 hrs post injection): raised | increase in renal cortical HO-1 levels over baseline (heme oxygenase 1 (HO-1) [1]; 18 hrs post injection): 5 fold | plasma haptoglobin levels (haptoglobin; 4 and 18 hrs post injection): stepwise increases | renal cortical haptoglobin levels (haptoglobin; 4 and 18 hrs post injection): stepwise increases | renal cortical haptoglobin mRNA induction (haptoglobin): raised | rise in plasma HO-1 levels (heme oxygenase 1 (HO-1) [5]): 15 fold
